These results are taken from PMC9964544, “Evidence of Insulin-Sensitizing and Mimetic Activity of the Sesquiterpene Quinone Avarone, a Protein Tyrosine Phosphatase 1B and Aldose Reductase Dual Targeting Agent from the Marine Sponge Dysidea avara” (Pharmaceutics, 2023).

For one test, the target named is T1, TC-PTP (Homo sapiens, UniProt P17706).
T1 sequence (P17706 1-415): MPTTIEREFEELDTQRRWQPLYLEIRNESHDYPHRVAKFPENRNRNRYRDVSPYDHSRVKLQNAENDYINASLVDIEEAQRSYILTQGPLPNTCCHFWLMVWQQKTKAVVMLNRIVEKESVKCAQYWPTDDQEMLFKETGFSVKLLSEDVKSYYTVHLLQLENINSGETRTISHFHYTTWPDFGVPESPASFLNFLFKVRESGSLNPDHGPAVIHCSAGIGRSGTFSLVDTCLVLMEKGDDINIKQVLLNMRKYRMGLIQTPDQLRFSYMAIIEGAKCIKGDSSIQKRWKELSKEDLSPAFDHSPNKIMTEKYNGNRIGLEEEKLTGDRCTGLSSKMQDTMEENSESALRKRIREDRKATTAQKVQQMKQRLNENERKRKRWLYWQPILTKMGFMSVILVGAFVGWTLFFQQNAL
In words: TC-PTP inhibition (IC50), specificity of avarone. In kind it is biochemical. As for the experimental part: To evaluate the capacity of avarone to specifically target the PTP1B enzyme, we determined the IC50 value for TC-PTP, another member of the tyrosine phosphatase family (Figure S14). […] To confirm this hypothesis, the interaction mode of avarone with TC-PTP was analyzed by in silico docking analysis carried out using the crystallographic structure (7F5N) deposited in the PDB database.
Figure S13. Binding sites of avarone (2) identified by docking analyses. ( A), General view
of interaction sites of avarone on PTP1B surface. (B), detail showing the molecules of
avarone bound into the active site of PTP1B. The images were obtained using the UCSF
Figure S14. Determination of the IC50 values of avarone for PTP1B (A), and TC-PTP (B).

For another test, the system named is C2C12 cells. In words: Akt phosphorylation in C2C12 cells by Western blot. Type of test: cell-based. To be noted: 30 min, serum-starved C2C12. The protocol: To evaluate the impact of avarone (2) on the insulin signaling pathway, C2C12 cells were plated on P35 dishes and grown until 70% confluence. Then, cells were washed with phosphate-buffered saline (PBS) and incubated for 24 h in the presence of a starvation medium (DMEM high glucose containing 2 mM glutamine, 100 U/mL of penicillin, and 100 μg/mL of streptomycin). After this time, cells were stimulated for 30 min with 10 nM insulin (Humulin R, Ely Lilly, Italy) with avarone (2) or the insulin-avarone combination. […] Phosphorylation levels of the insulin receptor β chain and of the kinase Akt were evaluated using specific antibodies: IR β subunit, clone CT-3 (MABS65) was from Santa Cruz Biotechnology (Santa Cruz, CA, USA); pIR β subunit, Y1162/1163 (sc-25103-R) was from Merck-Millipore (Burlington, MA, USA). […] Quantitation of the images obtained was carried out using iBright Analysis Software (Thermo Fisher Scientific 168 Third Avenue Waltham, MA, USA, 02451). Glucose uptake was evaluated as previously described. […] Intrinsic and 2-NBDG-derived cell fluorescences were determined using a flow cytometer (FACSCanto II, BD Biosciences, San Jose, CA, USA). […] Quantitative analysis was carried out using FlowJo software (FlowJo^TM v10. BD FlowJo™ Software for Windows Version 10. Ashland, OR: Becton, Dickinson and Company; 2021). […]
For orientation: A western blot detects proteins with antibodies after separation by electrophoresis.

In a further test the target is T2, human recombinant AKR1B1 (Homo sapiens, UniProt P15121).
T2 construct: made in house
In words: Kinetic characterization and reversibility of AKR1B1 inhibition (Morrison equation, tight binding). In kind it is biochemical. An excerpt: AKR1B1 activity measurements obtained at each substrate concentration were fitted by nonlinear regression analysis to the Morrison equation reported below (Equation (1)). (1) vi=1−([ET]+[I]+Kiapp)−([ET]+[I]+Kiapp)^2−4[ET][I]/2[ET]
This allowed the evaluation of Kiapp . In order to obtain the inhibition constants Ki (dissociation constant of the EI complex) and Ki′ , (dissociation constant of the EIS complex), the Kiapp values were plotted against substrate concentration and fitted by nonlinear regression analysis to the following equation:(2) Kiapp=([S]+ KM)/(KM/Ki+[S]/Ki′)
Panel A: the activity of the purified enzyme (10 mU) was measured at the indicated concentrations of avarone in the presence of the indicated L-idose concentrations. (B) Experimental data reported in (A) were fitted to the Morrison equation (see Materials and methods, Equation (1)).

“Also recorded” adds a separate entry of the source.

`CC1=CCC[C@H]2[C@](C)(CC3=CC(=O)C=CC3=O)[C@@H](C)CC[C@]12C` [avarone (2), avarone]: at TC-PTP, the midpoint of inhibition, the IC50, lay at 39.2 µM. The “affinity for TC-PTP lower than that for PTP1B” value at TC-PTP (ratio of IC50 values TC-PTP / PTP1B) was determined as 5.8 fold. Also, the “Akt phosphorylation levels, insulin-avarone combination” value in the test with C2C12 cells (25 µM avarone + 10 nM insulin) was “values higher than those observed after treatment with insulin alone”. Further, the Akt phosphorylation levels entry in the test on C2C12 cells (25 µM avarone alone) is reported as “increase in Akt phosphorylation levels similar to that induced by insulin”. Moreover, at human recombinant AKR1B1, the “type of AKR1B1 inhibition” value is listed as ““tight binding” inhibitor; also recorded: non-competitive mixed-type inhibitor”. Besides, the “Ki' (dissociation constant of the EIS complex) AKR1B1” value on human recombinant AKR1B1 (L-idose substrate, tight binding non-competitive model) amounted to 0.055 ± 0.008 µM. Also, the inhibitory constant (Ki) at human recombinant AKR1B1 (L-idose substrate, tight binding non-competitive model, read-out: Ki (dissociation constant of the EI complex) AKR1B1) is 0.41 ± 0.094 µM.

What is called IC50 is the midpoint of a concentration-inhibition curve. Low values mean higher potency, high ones lower potency. What is called Ki is the dissociation constant of the complex between target and ligand, obtained from inhibition or displacement.
